Measured values published in the NIST ThermoML archive (doi:10.1021/je800100m).

Columns and labels:
[1] = Liquid; for speed of sound: 101.3 kPa, Sing-around technique in a fixed-path interferometer; for mass density: 101.33 kPa, Pycnometric method
[2] = xn = mol fraction of the nth substance listed; conditions: 308.15 K, 101 kPa, Liquid, Sing-around technique in a fixed-path interferometer

Cc1ccccc1 [toluene]
[1], 298.15 K
Conditions	mass density [kg/m3]	speed of sound [m/s]
–	862.21	1304.6

Cc1ccccc1N [2-methylaniline] + Cc1ccccc1
[2]
Conditions	speed of sound [m/s]
x1 = 0.0457	1270
x1 = 0.0998	1283
x1 = 0.1516	1296
x1 = 0.2017	1308
x1 = 0.2773	1327
x1 = 0.3496	1346
x1 = 0.407	1359
x1 = 0.4797	1381
x1 = 0.5882	1414
x1 = 0.6667	1440
x1 = 0.7464	1470
x1 = 0.8033	1494
x1 = 0.8647	1523
x1 = 0.9223	1554

Cc1ccccc1C [1,2-dimethylbenzene]
[1], 298.15 K
Conditions	mass density [kg/m3]	speed of sound [m/s]
–	875.99	1344

Cc1ccccc1N [2-methylaniline] + Cc1ccccc1C
[2]
Conditions	speed of sound [m/s]
x1 = 0.0799	1325
x1 = 0.1313	1328
x1 = 0.1977	1333
x1 = 0.2507	1338
x1 = 0.3003	1345
x1 = 0.3663	1355
x1 = 0.4456	1370
x1 = 0.508	1385
x1 = 0.5892	1408
x1 = 0.6666	1434
x1 = 0.7287	1459
x1 = 0.7884	1485
x1 = 0.8314	1505
x1 = 0.909	1547

Cc1ccccc1N [2-methylaniline]
[1]
Conditions	mass density [kg/m3]	speed of sound [m/s]
298.15 K	994.28	–
308.15 K	–	1603

Cc1ccc(C)cc1 [1,4-dimethylbenzene]
[1], 298.15 K
Conditions	mass density [kg/m3]	speed of sound [m/s]
–	856.58	1310.1

Cc1ccccc1N [2-methylaniline] + Cc1ccc(C)cc1
[2]
Conditions	speed of sound [m/s]
x1 = 0.0534	1287
x1 = 0.1009	1295
x1 = 0.1707	1308
x1 = 0.2483	1325
x1 = 0.32	1342
x1 = 0.3949	1361
x1 = 0.4559	1378
x1 = 0.5332	1402
x1 = 0.6007	1423
x1 = 0.6897	1455
x1 = 0.7417	1475
x1 = 0.8009	1500
x1 = 0.8668	1530
x1 = 0.9374	1567
